Tests used:
Assay in all cases: relative viability (nuclei count vs DMSO), 5 days (fraction); higher = more cells survive
[1] = compound: C1CNCCC1C2=CC(=NN2)C3=CC=NC=C3 + CC(=O)Nc1cccc(-n2c(=O)n(C3CC3)c(=O)c3c(Nc4ccc(I)cc4F)n(C)c(=O)c(C)c32)c1 [Trametinib] (partner 0.02 µM)
How it was run: (§1)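 Five library-drug doses in √10 steps were combined with a fixed anchor-drug dose, or a single drug was given alone, by pin tool to lung cancer cell lines in 1536-well plates the day after seeding. Nuclei were stained and counted after 5 days. Relative viability is the nuclei count in treated wells over that in vehicle wells, taken as the median of duplicate plates.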

[2] = compound: C1CNCCC1C2=CC(=NN2)C3=CC=NC=C3 + C[C@@H](Oc1cc(-c2cnn(C3CCNCC3)c2)cnc1N)c1c(Cl)ccc(F)c1Cl [Crizotinib] (partner 1 µM)
How it was run: as §1

[3] = compound: C[C@@H](N)c1ccc(C(=O)Nc2ccnc3[nH]ccc23)cc1 + CS(=O)(=O)N1CCN(Cc2cc3nc(-c4cccc5[nH]ncc45)nc(N4CCOCC4)c3s2)CC1 [Pictilisib] (partner 1 µM)
How it was run: as §1

[4] = compound: C[C@@H](N)c1ccc(C(=O)Nc2ccnc3[nH]ccc23)cc1 + O=C(c1cc(Cc2n[nH]c(=O)c3ccccc23)ccc1F)N1CCN(C(=O)C2CC2)CC1 [Olaparib] (partner 8 µM)
How it was run: as §1

Cell Line	relative viability ([1]; first compound 0.08 µM)	relative viability ([1]; first compound 0.8 µM)	relative viability ([1]; first compound 2.53 µM)	relative viability ([1]; first compound 8 µM)	relative viability ([2]; first compound 0.08 µM)	relative viability ([2]; first compound 0.8 µM)	relative viability ([2]; first compound 2.53 µM)	relative viability ([2]; first compound 8 µM)	relative viability ([3]; first compound 0.04 µM)	relative viability ([3]; first compound 0.1265 µM)	relative viability ([3]; first compound 0.4 µM)	relative viability ([3]; first compound 1.265 µM)	relative viability ([3]; first compound 4 µM)	relative viability ([4]; first compound 0.04 µM)	relative viability ([4]; first compound 0.1265 µM)	relative viability ([4]; first compound 0.4 µM)	relative viability ([4]; first compound 1.265 µM)	relative viability ([4]; first compound 4 µM)
RERF-LC-KJ	0.837	0.83	0.966	0.858	0.872	0.894	0.912	0.759	0.575	0.541	0.558	0.585	0.492	0.879	0.906	0.894	0.934	0.86
NCI-H727	0.386	0.366	0.421	0.364	0.718	1.1	1.05	0.776	0.63	0.466	0.785	0.223	0.683	0.64	0.738	0.8	0.771	0.742
LCLC-97TM1	0.191	0.204	0.172	0.193	0.348	0.429	0.408	0.406	0.257	0.176	0.259	0.106	0.421	0.416	0.429	0.342	0.526	0.342
BEN	0.769	0.936	1.05	1.02	0.644	0.87	0.878	0.823	0.537	0.454	0.611	0.617	0.44	1.04	1.08	1.11	1.27	0.542
NCI-H2023	0.418	0.627	0.645	0.494	0.427	0.688	0.738	0.709	0.283	0.26	0.403	0.139	0.301	0.534	0.497	0.516	0.503	0.495
LC-2-ad	0.887	1.02	0.93	0.932	0.491	0.478	0.445	0.456	0.641	0.43	0.696	0.592	0.372	0.744	0.693	0.646	0.647	0.478
NCI-H647	0.491	0.379	0.535	0.525	1.05	1.08	1.01	1.06	0.301	0.394	0.451		0.42	0.668	0.615	0.602	0.478	0.474
NCI-H1755	0.744	0.833	0.755	0.739	0.967	0.836	0.887	0.776	0.418	0.487	0.517	0.382	0.364	0.91	0.963	0.873	0.839	0.743
EPLC-272H	0.283	0.278	0.319	0.344	0.922	0.937	0.91	0.867	0.387	0.34	0.339		0.297	0.729	1.17	0.808	0.703	0.394
NCI-H1437	0.54	0.536	0.679	0.639	0.866	0.967	0.929	0.883	0.468	0.419	0.407	0.396	0.488	0.649	0.678	0.636	0.632	0.645
EKVX	0.402		0.366	0.445	1.05	0.807	0.956	0.925	0.582	0.489	0.532	0.467	0.443	0.993	1.14	1.03	0.923	0.727
NCI-H1651	0.816	0.855	0.897	0.815	0.825	0.832	0.872	0.854	0.663	0.646	0.684	0.808	0.799	0.195	0.174	0.179	0.24	0.221
HCC-15	0.421	0.387	0.391	0.4	0.805	0.928	0.839	0.779	0.821	0.705	0.796		0.731	0.744	0.731	0.726	0.693	0.743
LCLC-103H	0.689	0.724	0.67	0.674	1.11	1.04	1.07	0.935	0.756	0.616	0.54	0.482	0.584	0.8	0.748	0.769	0.827	0.628
NCI-H23	0.372		0.444	0.371	0.431	0.499	0.499	0.518	0.605	0.536	0.487		0.557	0.311	0.335	0.368		0.3
NCI-H1792	0.428	0.487	0.539	0.438	0.987	0.983	1.06	0.959	0.368	0.273	0.38	0.349	0.288	0.419	0.523	0.564	0.383	0.319
NCI-H596	0.777	0.808	0.819	0.834	0.984	1.15	1.04	0.991	0.435	0.44	0.408	0.416	0.319	0.63	0.698	0.723	0.749	0.763
NCI-H460	0.0741	0.122	0.158	0.188	0.369	1.02	1.02	0.996	0.467	0.252	0.489	0.0436	0.372	0.342	0.429	0.521	0.579	0.571
HCC-366	0.292	0.428	0.393	0.337	0.462	0.559	0.551	0.536	0.113	0.137	0.163	0.132	0.0875	0.345	0.368	0.371	0.447	0.389
NCI-H2085	0.623		0.52	0.71	0.976	0.938	0.973	0.825	0.6	0.63	0.581	0.704	0.606	0.762	0.726	0.667	0.706	0.619
PC-14	0.64	0.761	0.903	0.763	0.917	0.874	1.04	0.835	0.679	0.699	0.684	0.665	0.612	0.281	0.233	0.263	0.29	0.271
HOP-62	0.344	0.415	0.425	0.357	0.682	1.11	0.942	0.978	0.539	0.413	0.827	0.0717	0.887	0.43	0.381	0.419		0.47
NCI-H2087	0.216	0.226	0.181	0.291	0.837	1.02	0.976	0.666	1.04	0.78	0.908	0.153	0.797	0.733	0.598	0.605	0.625	0.576
PC-3 [JPC-3]	0.637	0.718	0.734	0.684	0.941	1.07	0.971	0.953	0.741	0.784	0.788	0.632	0.683	0.968	1.22	1.13	1.23	1.01
H3255	0.532		0.689	0.736	0.891	0.816	1.02	0.609	0.496	0.576	0.608	0.581	0.515	0.533	0.607	0.606	0.558	0.48
EMC-BAC-2		0.946	0.994	0.991	0.705	0.772	0.751	0.793	0.491	0.575	0.531	0.476	0.411		0.516	0.477	0.505	0.425
CAL-12T	0.351	0.363	0.363	0.419	0.473	0.74	0.716	0.774	0.544	0.76	0.66		0.437	0.702	0.882	0.815	0.841	0.724
NCI-H650	0.825	1.14	1.1	1.02	0.681	0.802	0.929	0.489	0.81	0.753	0.704		0.708		0.385	0.433		0.325
SK-MES-1	0.553	0.549	0.542	0.578	1.03	0.995	0.992	0.94	0.375	0.39	0.359	0.395	0.404	0.813	0.834	0.697	0.639	0.638
NCI-H1355	0.419	0.442	0.466	0.406	1.02	1.03	1.12	1.13	0.338	0.429	0.555		0.351	0.723	0.75	0.877	0.709	0.696
